The nature of series [1]: 99mTc label retention with excess cysteine, clot phantoms (Example 5). The note with it: 0.25 mg cysteine in 0.5 mL PBS, 120 min, 37° C. It is filed as physicochemical. Here is the method: (§1) In a parallel experiment, binding of the fibrin-binding monomeric construct to acellular clot phantoms in the presence of excess cysteine, or in the presence of 50% serum was also tested. For excess cysteine conditions, 0.25 mg of cysteine in 0.5 mL PBS was also combined with the monomeric construct and clot phantoms. The experiment was conducted as described above, and incubated for 120 min at 37° C. in a water bath. […] Cys is used to test the stability of the metal on the agent, and binding of the agent without the metal would look like lower binding. Instability and loss of the metal in the presence of serum could have accounted for the lower binding of the monomeric peptide, but the metal was stable. […] Thus the peptide binding was interfered with by off-target association with something in serum, likely albumen. This was consistent with previous reports describing the serum binding of the monomeric fibrin-binding peptide.

Another series relates to fibrin clots. The series can be described thus: Ex vivo LVAD flow study using a mock loop. It counts as binding. The following applies: 10,000 RPM, 6 L/min, 2 minutes, 50:50 plasma:PBS, 0.5 mCi. On the procedure:
The high shear (10,000 RPM) and high flow (6 L/min) of the LVAD, which is required to pump the entire circulating blood volume of the patient every minute, places severe demands on the binding affinity and clot retention of the nuclear probe. […] The ½″ plastic tubing circuit was filled with a 50:50 human plasma:PBS mixture (200 ml). Uniform fibrin clots were secured with a highly porous, thin gauze netting within a plastic ½″ chamber immediately proximal to the LVAD inlet secured. ^99mTc-F1A or ^99mTc-F4A were injected into the mock loop and allowed to target the clots at the full flux rate for 2 minutes.
Ex vivo LVAD flow study using a mock loop: A LVAD (Heartmate II) driven by a computer-controlled console was inserted into a 200 ml mock flow loop comprised of ½″ plastic tubing interconnecting a PBS/Fresh Plasma (50:50) reservoir, an injection port, a media drainage port, and an inline ½″ plastic chamber. Uniform fibrin clots produced by mixing fibrinogen, thrombin, and calcium and aged 24 hours were secured within the inline chamber using a highly porous, single thread layer of cotton gauze. […] Radioactive circulating plasma/PBS was drained and replaced with PBS, which circulated for 2 minutes to remove unbound radioactivity. Clot radioactivity was counted in a calibrated gamma well counter and the results adjusted for decay.

Series [2] deals with T1, fibrin clot (Homo sapiens, UniProt P02671+P02675+P02679).
T1 construct: admixing 100 μl of fresh human plasma with 3 units thrombin (Sigma Chemical); from tissue; host or cells: fresh human plasma clotted with thrombin (Sigma Chemical)
T1 sequence (P02671 20-644 isoform P02671-2 limits assumed): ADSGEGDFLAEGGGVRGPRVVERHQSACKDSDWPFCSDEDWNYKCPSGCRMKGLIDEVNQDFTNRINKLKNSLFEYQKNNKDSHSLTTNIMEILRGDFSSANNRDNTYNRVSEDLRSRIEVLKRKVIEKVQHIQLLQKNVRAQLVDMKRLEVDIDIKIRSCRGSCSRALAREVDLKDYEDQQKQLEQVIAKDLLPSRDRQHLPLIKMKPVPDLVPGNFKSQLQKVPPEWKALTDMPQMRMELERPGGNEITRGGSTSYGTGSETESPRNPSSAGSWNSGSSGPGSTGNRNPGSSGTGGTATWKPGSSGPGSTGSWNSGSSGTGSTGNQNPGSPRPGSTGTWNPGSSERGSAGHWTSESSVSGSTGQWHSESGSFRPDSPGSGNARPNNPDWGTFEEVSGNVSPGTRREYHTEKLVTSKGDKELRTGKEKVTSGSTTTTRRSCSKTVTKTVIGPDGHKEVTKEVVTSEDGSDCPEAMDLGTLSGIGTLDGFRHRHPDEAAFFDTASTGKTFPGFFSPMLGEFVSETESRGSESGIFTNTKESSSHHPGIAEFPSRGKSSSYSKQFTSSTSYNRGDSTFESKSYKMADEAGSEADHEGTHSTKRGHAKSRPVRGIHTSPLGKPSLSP
T1 sequence (P02675 45-491 limits assumed): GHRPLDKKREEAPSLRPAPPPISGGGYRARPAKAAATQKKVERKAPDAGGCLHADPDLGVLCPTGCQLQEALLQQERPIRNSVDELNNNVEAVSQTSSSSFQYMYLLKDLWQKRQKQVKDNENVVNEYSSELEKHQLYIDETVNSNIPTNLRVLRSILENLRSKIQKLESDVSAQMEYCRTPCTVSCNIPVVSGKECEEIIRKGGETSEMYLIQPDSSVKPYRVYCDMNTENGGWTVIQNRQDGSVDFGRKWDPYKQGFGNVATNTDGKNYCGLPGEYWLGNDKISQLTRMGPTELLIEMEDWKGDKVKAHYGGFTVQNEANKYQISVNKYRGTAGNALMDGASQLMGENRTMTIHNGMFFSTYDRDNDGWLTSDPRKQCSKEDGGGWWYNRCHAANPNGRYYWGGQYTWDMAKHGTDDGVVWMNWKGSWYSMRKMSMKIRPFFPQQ
T1 sequence (P02679 27-437 isoform P02679-2 limits assumed): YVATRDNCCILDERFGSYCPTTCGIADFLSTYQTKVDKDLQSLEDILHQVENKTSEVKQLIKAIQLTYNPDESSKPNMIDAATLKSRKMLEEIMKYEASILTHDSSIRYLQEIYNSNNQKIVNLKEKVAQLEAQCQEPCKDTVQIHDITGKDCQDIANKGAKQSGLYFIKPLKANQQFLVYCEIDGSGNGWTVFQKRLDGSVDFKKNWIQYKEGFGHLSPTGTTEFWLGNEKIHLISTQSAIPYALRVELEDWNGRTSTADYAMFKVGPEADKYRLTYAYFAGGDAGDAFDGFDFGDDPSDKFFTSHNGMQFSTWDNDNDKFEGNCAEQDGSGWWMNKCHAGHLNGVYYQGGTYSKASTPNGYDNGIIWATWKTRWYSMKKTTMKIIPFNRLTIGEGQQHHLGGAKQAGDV
The series can be described thus: Fibrin binding affinity, acellular fibrin clot assay (Hill slope model). The following applies: uniform fibrin clots in PBS, read-out: dissociation constant (Kd). Here is the method: (§2) Acellular fibrin clot assays of probe affinity, radiolabel stability, and plasma interference: Acellular fibrin clots were used: 1) to characterize the binding affinity of ^99mTc-F1A and ^99mTc-F4A, 2) to assess the stability of ^99mTc chelation, and 3) to evaluate the extent of plasma interference of fibrin binding. Specifically, uniform clots were produced by quickly admixing 100 μl of fresh human plasma with 3 units thrombin (Sigma Chemical). The mixture was pipetted into uniform cylindrical plastic tubes. Once formed, clots were washed repeatedly in 0.1 M PBS buffer (pH 7.0) then stored in same until use at 4° C.
Fibrin binding affinity: ^99mTc-F1A or ^99mTc-F4A (20 μCi) were incubated with the clot samples at 37° C. for 30 minutes with 1, 5, 10, 15, 25, and 30 μg cold monomer supplemented with 0.1 M PBS pH 7.4 to bring each test volume total to 0.5 ml. The fibrin clots were separated from unbound radioactivity by repeated centrifugation and washing then counted in a calibrated well counter (Wizard 3, Perkin Elmer). Results, adjusted for decay, were used to estimate dissociation constant (kd) using the Hill slope model, Y=Bmax*X^h/(Kd^h+X^h) (MatLab). Total fibrin concentration was estimated from plasma fibrinogen estimated to be 0.735 nmoles per clot.

The target in series [3] is T1, fibrin clot. Kind of series: Plasma interference on fibrin clot binding (50:50 plasma:PBS). Here is the method:
as §2
Assessment of ^99mTc-F1A and ^99mTc-F4A radiolabel stability and plasma interference: Radiolabeled F1A and F4A were bound to clots in the presence of marked excess cysteine to evaluate the stability of the ^99mTc label in triplicate.^49 99mTc-F1A or ^99mTc-F4A (20 μCi) supplemented with 0.1 M PBS pH 7.4 (total volume of 0.5 ml) were incubated with fibrin clot samples at 37° C. for 30 minutes. Similarly, the 0.1 M PBS buffer diluted 50% with fresh human plasma (total volume of 0.5 ml) was used to assess potential matrix interference on radiolabeled peptide binding in triplicate. In both instances, fibrin clots were separated from unbound radioactivity by repeated centrifugation, washed, then counted in a calibrated well counter (Wizard 3, Perkin Elmer).

Series [4] has as its target T2, fibrin (acellular clot phantoms) (Homo sapiens, UniProt P02671+P02675+P02679).
T2 construct: 100 μL of human plasma was quickly mixed with 3 unit of thrombin solution; from tissue; host or cells: human plasma clotted with thrombin
T2 sequence (P02671 20-644 isoform P02671-2 limits assumed): T1 sequence (P02671 20-644 isoform P02671-2 limits assumed)
T2 sequence (P02675 45-491 limits assumed): T1 sequence (P02675 45-491 limits assumed)
T2 sequence (P02679 27-437 isoform P02679-2 limits assumed): T1 sequence (P02679 27-437 isoform P02679-2 limits assumed)
The series can be described thus: Clot phantom binding in presence of 50% serum (Example 5). On the procedure:
as §1

The target in series [5] is T2, fibrin (acellular clot phantoms). The series can be described thus: Binding of 99mTc monomeric construct to acellular clot phantoms (Scatchard plot). On the procedure:
Clot phantoms were generated using a typical procedure wherein 100 μL of human plasma was quickly mixed with 3 unit of thrombin solution. The resulting solution was then transferred into a plastic cylinder tube. Once clots were formed, they were placed each in 4 mL 0.1 M PBS buffer, pH7.0 solution.
The fibrin-binding monomer construct labeled with ^99mTc (10 mCi/350 μg) was prepared and analyzed by TLC as described in the examples above. The construct was diluted to generate a dilution series comprising 1, 5, 10, 15, 25, and 30 μg peptide construct in a total volume of 0.5 mL 0.1 M PBS at pH 7.4.
The monomeric construct was then combined with clot phantoms and incubated for 30 min at 37° C. in a water bath. Clot phantoms were separated from the solution by centrifugation device, and radioactivity was measured in the clot and the supernatant using a calibrated dosimeter. The experiment was repeated for three times and data were analyzed by Scatchard plot and regression analysis (FIG. 3). […] The dissociation constant (Kd) and the number of binding sites per clot were also determined.

“Also recorded” adds a separate entry of the source.

In general, Kd refers to the equilibrium constant for the complex coming apart. For the substance “99mTc-labeled monomer: fibrin homing peptide QWECPYGLCWIQ linked through PEG2 spacer to technetium chelating sequence HHE [^99mTc-F1A]”, in series [1], the “effect of excess cysteine on coupling of the 99mTc radiolabel” value is “did not impact the secure coupling”. The “clot binding and retention in LVAD mock loop” value in the series with fibrin clots is recorded as “very low signal level; also recorded: very close to background level counts”. Also, the Kd on fibrin clot [2] was approximately 10.2 µM. In addition, the “fibrin clot binding in 50:50 plasma:PBS versus PBS” value at fibrin clot [3] is listed as “severely compromised; also recorded: dramatically reduced”. The “binding of labeled peptide to clot in presence of 50% serum” value in series [4] is “greatly diminished”. In series [5], the “binding site per clot” value came out at 8.48E+14 and the “binding site per mg” value came out at 1.21E+15.

(Values after patent publication US11052163B2, “Homing agents” (Washington University, priority 2013, dated 2021).)
